Legend:
[1] = target: T1, Mineralocorticoid receptor (Homo sapiens) (UniProt P08235); settings: CV-1
T1 sequence (whole entry): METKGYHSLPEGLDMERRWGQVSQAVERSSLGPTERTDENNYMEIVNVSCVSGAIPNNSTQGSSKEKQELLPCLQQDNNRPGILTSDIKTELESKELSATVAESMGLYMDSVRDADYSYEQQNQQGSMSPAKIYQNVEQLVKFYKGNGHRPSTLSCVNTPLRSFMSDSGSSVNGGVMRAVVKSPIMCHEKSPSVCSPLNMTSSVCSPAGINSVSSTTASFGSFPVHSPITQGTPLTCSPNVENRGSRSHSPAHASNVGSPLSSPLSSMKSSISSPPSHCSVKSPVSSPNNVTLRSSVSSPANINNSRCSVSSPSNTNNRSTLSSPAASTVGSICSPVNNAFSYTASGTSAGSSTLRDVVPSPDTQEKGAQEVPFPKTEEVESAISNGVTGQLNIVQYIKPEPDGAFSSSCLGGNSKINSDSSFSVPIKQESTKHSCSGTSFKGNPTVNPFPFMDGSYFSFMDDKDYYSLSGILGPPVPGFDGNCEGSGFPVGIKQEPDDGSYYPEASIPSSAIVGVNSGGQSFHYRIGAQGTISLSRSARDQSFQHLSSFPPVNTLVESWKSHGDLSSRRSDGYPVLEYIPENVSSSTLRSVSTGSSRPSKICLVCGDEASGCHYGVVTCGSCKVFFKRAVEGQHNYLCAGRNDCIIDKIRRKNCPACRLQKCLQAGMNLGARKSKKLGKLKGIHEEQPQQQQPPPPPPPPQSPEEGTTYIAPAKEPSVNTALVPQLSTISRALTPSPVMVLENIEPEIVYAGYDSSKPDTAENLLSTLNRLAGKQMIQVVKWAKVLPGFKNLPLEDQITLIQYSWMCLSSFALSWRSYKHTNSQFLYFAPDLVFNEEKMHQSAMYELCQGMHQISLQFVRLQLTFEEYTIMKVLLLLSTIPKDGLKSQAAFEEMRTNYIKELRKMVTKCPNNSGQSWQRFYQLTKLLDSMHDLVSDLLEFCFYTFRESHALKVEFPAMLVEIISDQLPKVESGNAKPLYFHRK
Description: Transcriptional activation activity in CV-1 cells expressing mineralocorticoid receptor

[2] = target: T2, Mineralocorticoid receptor (Homo sapiens, UniProt P08235); test: Affinity for recombinant Mineralocorticoid receptor; settings: read-out: Kd app
T2 sequence (P08235 whole entry): T1 sequence (whole entry)

[3] = target: T2, Mineralocorticoid receptor; test: Inhibition of 10e-9 M aldosterone activity in CV-1 cells expressing mineralocorticoid receptor; format: functional, cell-based

Row | SMILES | ED50 [1] [nM] | Kd [2] [nM] | IC50 [3] [nM]
1 | CC12CCC(=O)C=C1CCC1C2CCC2(C)C(C(=O)C=[N+]=[N-])CCC12 (stereo unspecified) | 6 | 0.74 | 
2 | CC(=O)C1CC[C@H]2[C@@H]3CCC4=CC(=O)CCC4(C)[C@H]3CCC12C(=O)[CH-][N+]#N (stereo partly specified) |  | 20 | 700
3 | C[C@@H](O)C1CC[C@H]2[C@@H]3CCC4=CC(=O)CCC4(C)[C@H]3CCC12C(=O)C=[N+]=[N-] (stereo partly specified) |  | 20 | 900

From ChEMBL document CHEMBL1129684, “New steroidal diazo ketones as potential photoaffinity labeling reagents for the mineralocorticoid receptor: synthesis and biological activities” (J Med Chem, 1996)
